Literature values in patent US20050119262A1, “Method for preventing or treating an optic neuropathy with a cox-2 inhibitor and an intraocular pressure reducing agent” (Pharmacia Corporation, priority 2003, published 2005).

Conditions: patients with ocular hypertension and glaucoma

## CC(=O)Oc1ccccc1C(=O)O [acetylsalicylic acid]
  effect on IOP: no affect on IOP
